Converted amounts (≈) assume the structure as drawn.
Assays:
Assay type in all cases: functional
[1] = tested on: Mycobacterium tuberculosis; assay: Antitubercular activity against Mycobacterium tuberculosis H37Rv at 6.25 ug/ml by microplate alamar blue assay
[2] = tested on: Mycobacterium tuberculosis; assay: Antitubercular activity against Mycobacterium tuberculosis H37Rv by twofold dilution method
[3] = Selectivity index, ratio of IC50 for african green monkey Vero cells to MIC for Mycobacterium tuberculosis H37Rv

SMILES: CCOC(=O)C1=C(C)NC(=S)NC1c1cn(-c2ccccc2)nc1-c1ccc(C)cc1 (centres undefined)
- inhibition at 6.25 µg/mL [1]: 96%
- MIC [2]: 1.56 µg/mL (≈ 3.61 µM)
- Selectivity Index [3]: 5.7

SMILES: CCOC(=O)C1=C(C)NC(=N)NC1c1cn(-c2ccccc2)nc1-c1ccc(C)cc1 (centres undefined)
- inhibition at 6.25 µg/mL [1]: 78%

SMILES: COC(=O)C1=C(C)NC(=O)NC1c1cn(-c2ccccc2)nc1-c1ccc(Cl)cc1 (centres undefined)
- inhibition at 6.25 µg/mL [1]: 75%

SMILES: COC(=O)C1=C(C)NC(=O)NC1c1cn(-c2ccccc2)nc1-c1ccc([N+](=O)[O-])cc1 (centres undefined)
- inhibition at 6.25 µg/mL [1]: 39%

SMILES: COC(=O)C1=C(C)NC(=S)NC1c1cn(-c2ccccc2)nc1-c1ccc(Br)cc1 (centres undefined)
- inhibition at 6.25 µg/mL [1]: 43%

SMILES: CCOC(=O)C1=C(C)NC(SC)NC1c1cn(-c2ccccc2)nc1-c1ccc(Cl)cc1 (centres undefined)
- inhibition at 6.25 µg/mL [1]: 13%

SMILES: CCOC(=O)C1=C(C)NC(SC)NC1c1cn(-c2ccccc2)nc1-c1ccc([N+](=O)[O-])cc1 (centres undefined)
- inhibition at 6.25 µg/mL [1]: 37%

SMILES: CCOC(=O)C1=C(C)NC(=S)NC1c1cn(-c2ccccc2)nc1-c1ccc([N+](=O)[O-])cc1 (centres undefined)
- inhibition at 6.25 µg/mL [1]: 92%
- MIC [2]: 3.13 µg/mL (≈ 6.75 µM)
- Selectivity Index [3]: >3.2

SMILES: CCOC(=O)C1=C(C)NC(=S)NC1c1cn(-c2ccccc2)nc1-c1ccc(Cl)cc1 (centres undefined)
- inhibition at 6.25 µg/mL [1]: 75%

SMILES: COC(=O)C1=C(C)NC(=O)NC1c1cn(-c2ccccc2)nc1-c1ccc(Br)cc1 (centres undefined)
- inhibition at 6.25 µg/mL [1]: 90%
- MIC [2]: 6.25 µg/mL (≈ 13.4 µM)
- Selectivity Index [3]: >1.6

SMILES: CCOC(=O)C1=C(C)NC(=N)NC1c1cn(-c2ccccc2)nc1-c1ccc(Br)cc1 (centres undefined)
- inhibition at 6.25 µg/mL [1]: 51%

SMILES: COC(=O)C1=C(C)NC(=S)NC1c1cn(-c2ccccc2)nc1-c1ccc(Cl)cc1 (centres undefined)
- inhibition at 6.25 µg/mL [1]: 68%

SMILES: CCOC(=O)C1=C(C)NC(=N)NC1c1cn(-c2ccccc2)nc1-c1ccc(F)cc1 (centres undefined)
- inhibition at 6.25 µg/mL [1]: 18%

SMILES: CCOC(=O)C1=C(C)NC(=O)NC1c1cn(-c2ccccc2)nc1-c1ccc(F)cc1 (centres undefined)
- inhibition at 6.25 µg/mL [1]: 100%
- MIC [2]: 0.02 µg/mL (≈ 0.0476 µM)
- Selectivity Index [3]: >500

SMILES: COC(=O)C1=C(C)NC(=O)NC1c1cn(-c2ccccc2)nc1-c1ccc(C)cc1 (centres undefined)
- inhibition at 6.25 µg/mL [1]: 98%
- MIC [2]: 1.56 µg/mL (≈ 3.88 µM)
- Selectivity Index [3]: >6.4

SMILES: CCOC(=O)C1=C(C)NC(=S)NC1c1cn(-c2ccccc2)nc1-c1ccc(F)cc1 (centres undefined)
- inhibition at 6.25 µg/mL [1]: 30%

SMILES: CCOC(=O)C1=C(C)NC(=N)NC1c1cn(-c2ccccc2)nc1-c1ccc(Cl)cc1 (centres undefined)
- inhibition at 6.25 µg/mL [1]: 94%
- MIC [2]: 3.13 µg/mL (≈ 7.18 µM)
- Selectivity Index [3]: >3.2

SMILES: CCOC(=O)C1=C(C)NC(=S)NC1c1cn(-c2ccccc2)nc1-c1ccc(Br)cc1 (centres undefined)
- inhibition at 6.25 µg/mL [1]: 87%

SMILES: CCOC(=O)C1=C(C)NC(=O)NC1c1cn(-c2ccccc2)nc1-c1ccc(Cl)cc1 (centres undefined)
- inhibition at 6.25 µg/mL [1]: 49%

SMILES: CCOC(=O)C1=C(C)NC(SC)NC1c1cn(-c2ccccc2)nc1-c1ccc(C)cc1 (centres undefined)
- inhibition at 6.25 µg/mL [1]: 97%
- MIC [2]: 1.56 µg/mL (≈ 3.48 µM)
- Selectivity Index [3]: 4.7

SMILES: COC(=O)C1=C(C)NC(=S)NC1c1cn(-c2ccccc2)nc1-c1ccc(C)cc1 (centres undefined)
- inhibition at 6.25 µg/mL [1]: 46%

SMILES: CCOC(=O)C1=C(C)NC(=O)NC1c1cn(-c2ccccc2)nc1-c1ccc(C)cc1 (centres undefined)
- inhibition at 6.25 µg/mL [1]: 68%

SMILES: COC(=O)C1=C(C)NC(=O)NC1c1cn(-c2ccccc2)nc1-c1ccc(F)cc1 (centres undefined)
- inhibition at 6.25 µg/mL [1]: 62%

SMILES: CCOC(=O)C1=C(C)NC(SC)NC1c1cn(-c2ccccc2)nc1-c1ccc(F)cc1 (centres undefined)
- inhibition at 6.25 µg/mL [1]: 8%

SMILES: CCOC(=O)C1=C(C)NC(=N)NC1c1cn(-c2ccccc2)nc1-c1ccc([N+](=O)[O-])cc1 (centres undefined)
- inhibition at 6.25 µg/mL [1]: 58%

SMILES: CCOC(=O)C1=C(C)NC(=O)NC1c1cn(-c2ccccc2)nc1-c1ccc([N+](=O)[O-])cc1 (centres undefined)
- inhibition at 6.25 µg/mL [1]: 100%
- MIC [2]: 0.02 µg/mL (≈ 0.0447 µM)
- Selectivity Index [3]: >500

SMILES: COC(=O)C1=C(C)NC(=S)NC1c1cn(-c2ccccc2)nc1-c1ccc([N+](=O)[O-])cc1 (centres undefined)
- inhibition at 6.25 µg/mL [1]: 91%
- MIC [2]: 3.13 µg/mL (≈ 6.96 µM)
- Selectivity Index [3]: 3

SMILES: COC(=O)C1=C(C)NC(=S)NC1c1cn(-c2ccccc2)nc1-c1ccc(F)cc1 (centres undefined)
- inhibition at 6.25 µg/mL [1]: 73%

SMILES: CCOC(=O)C1=C(C)NC(SC)NC1c1cn(-c2ccccc2)nc1-c1ccc(Br)cc1 (centres undefined)
- inhibition at 6.25 µg/mL [1]: 13%

SMILES: CCOC(=O)C1=C(C)NC(=O)NC1c1cn(-c2ccccc2)nc1-c1ccc(Br)cc1 (centres undefined)
- inhibition at 6.25 µg/mL [1]: 33%

SMILES: NNC(=O)c1ccncc1 [ISONIAZID]
- MIC [2]: 0.03 µg/mL (≈ 0.219 µM)

Reference: ChEMBL document CHEMBL1255176, “Novel dihydropyrimidines as a potential new class of antitubercular agents” (2010)
